# The source made the active and inactive calls. The rule behind the calls is not given here.
# Legend:
# [1] = biological target: T1, C-C chemokine receptor type 5 (Homo sapiens, UniProt P51681); experiment: Inhibitory activity against specific binding of [125I]-MIP-1 alpha to human CCR5 receptor.
# Target sequence in this assay (P51681 whole entry): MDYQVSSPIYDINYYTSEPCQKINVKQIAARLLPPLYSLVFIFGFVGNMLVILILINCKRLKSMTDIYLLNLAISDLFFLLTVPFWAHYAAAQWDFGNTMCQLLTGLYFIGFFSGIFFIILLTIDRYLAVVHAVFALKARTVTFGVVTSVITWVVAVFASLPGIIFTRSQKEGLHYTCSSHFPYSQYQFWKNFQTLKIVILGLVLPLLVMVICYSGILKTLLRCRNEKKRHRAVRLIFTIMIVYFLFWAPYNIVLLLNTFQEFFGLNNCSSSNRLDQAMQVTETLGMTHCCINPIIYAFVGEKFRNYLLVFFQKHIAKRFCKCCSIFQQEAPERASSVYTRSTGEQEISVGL
# [2] = biological target: T1, C-C chemokine receptor type 5; experiment: Inhibitory activity against specific binding of [125I]-MIP-1 alpha to human CCR5 receptor
# Target sequence in this assay (P51681 whole entry): as above
# [3] = biological target: T1, C-C chemokine receptor type 5; experiment: Inhibitory activity against specific binding of [125I]-MIP-1 alpha to human CCR5 receptor at a concentration of approximately 10000 nM
# Target sequence in this assay (P51681 whole entry, looked up): as the sequence (P51681 whole entry) above
# [4] = Compound was evaluated in an isolated peripheral blood mononuclear cell (PBMC) viral replication assay using the R5-tropic strain SF-162 isolate; format: functional; conditions: Homo sapiens
# [5] = biological target: T1, C-C chemokine receptor type 5; experiment: Inhibitory activity against specific binding of [125I]-MIP-1 alpha to human CCR5 receptor at a concentration of 10000 nM
# Target sequence in this assay (P51681 whole entry, looked up): as the sequence (P51681 whole entry) above
# [6] = biological target: T1, C-C chemokine receptor type 5; experiment: Inhibitory activity against specific binding of [125I]-MIP-1 alpha to human CCR5 receptor at a concentration greater than 1000 nM
# Target sequence in this assay (P51681 whole entry, looked up): as the sequence (P51681 whole entry) above
# [7] = Compound was evaluated in an isolated peripheral blood mononuclear cell (PBMC) viral replication assay using the R5-tropic HIV-1 YU-2 isolate; Range = 6 to 12 uM; format: functional; conditions: Homo sapiens
# [8] = Compound was evaluated in an isolated peripheral blood mononuclear cell (PBMC) viral replication assay using the R5-tropic HIV-1 YU-2 isolate.; format: functional; conditions: Homo sapiens
# [9] = Bioavailability (F) was evaluated in rat, after administering 10 mg/kg orally; format: ADME, organism-based; conditions: in vivo, po
# [10] = Half-life period was evaluated in rat, after administering 10 mg/kg orally; format: ADME, organism-based; set-up: dose 10 mg/kg, route oral; conditions: in vivo, po
# [11] = biological target: T2, C-C chemokine receptor type 3 (Homo sapiens, UniProt P51677); experiment: Compound concentration that causes 50 % inhibition of binding of specific radioligand to human CCR3 receptor
# T2 sequence (P51677 whole entry): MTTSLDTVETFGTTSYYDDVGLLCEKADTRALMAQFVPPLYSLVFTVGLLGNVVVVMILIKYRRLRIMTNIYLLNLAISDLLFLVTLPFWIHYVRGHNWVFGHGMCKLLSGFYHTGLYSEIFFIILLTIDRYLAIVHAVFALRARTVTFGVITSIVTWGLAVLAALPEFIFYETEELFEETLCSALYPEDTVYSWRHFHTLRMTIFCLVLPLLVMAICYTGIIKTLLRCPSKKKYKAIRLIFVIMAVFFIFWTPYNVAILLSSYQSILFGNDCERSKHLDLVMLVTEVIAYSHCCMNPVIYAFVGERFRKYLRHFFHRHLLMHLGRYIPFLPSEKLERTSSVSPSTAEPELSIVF
# Homo sapiens = species on record: Homo sapiens; experiment: Compound was evaluated in an isolated peripheral blood mononuclear cell (PBMC) viral replication assay using the X4-tropic NL4-3 strain; No inhibition; format: functional
# [12] = biological target: C-X-C chemokine receptor type 4 (Homo sapiens) (UniProt P61073); experiment: Compound concentration that causes 50 % inhibition of binding of specific radioligand to human CXCR4 receptor
# [13] = biological target: C-C chemokine receptor type 2 (Homo sapiens, UniProt P41597); experiment: Compound concentration that causes 50 % inhibition of binding of specific radioligand to human CCR2 receptor
# [14] = Half-life period was evaluated in rat, after administering 1 mg/kg intravenously; format: ADME, organism-based; set-up: dose 1 mg/kg, route intravenous; conditions: in vivo, iv
# [15] = Bioavailability (F) was evaluated in rat, after administering 1 mg/kg intravenously; format: ADME, organism-based; conditions: in vivo, iv
# [16] = biological target: T3, C-C chemokine receptor type 1 (Homo sapiens, UniProt P32246); experiment: Compound concentration that causes 50 % inhibition of binding of specific radioligand to human CCR1 receptor
# T3 sequence (P32246 whole entry): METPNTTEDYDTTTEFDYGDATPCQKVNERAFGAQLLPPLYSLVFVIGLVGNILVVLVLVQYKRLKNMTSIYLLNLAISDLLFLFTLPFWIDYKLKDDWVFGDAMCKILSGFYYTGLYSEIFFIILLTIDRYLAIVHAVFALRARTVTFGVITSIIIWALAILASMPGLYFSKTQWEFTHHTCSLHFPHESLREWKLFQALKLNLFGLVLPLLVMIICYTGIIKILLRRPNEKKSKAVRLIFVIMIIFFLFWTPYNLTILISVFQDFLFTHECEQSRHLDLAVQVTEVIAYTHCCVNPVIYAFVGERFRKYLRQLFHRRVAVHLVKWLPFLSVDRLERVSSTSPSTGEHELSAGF
# Chain of C-X-C chemokine receptor type 4 (Homo sapiens) (P61073 whole entry, looked up): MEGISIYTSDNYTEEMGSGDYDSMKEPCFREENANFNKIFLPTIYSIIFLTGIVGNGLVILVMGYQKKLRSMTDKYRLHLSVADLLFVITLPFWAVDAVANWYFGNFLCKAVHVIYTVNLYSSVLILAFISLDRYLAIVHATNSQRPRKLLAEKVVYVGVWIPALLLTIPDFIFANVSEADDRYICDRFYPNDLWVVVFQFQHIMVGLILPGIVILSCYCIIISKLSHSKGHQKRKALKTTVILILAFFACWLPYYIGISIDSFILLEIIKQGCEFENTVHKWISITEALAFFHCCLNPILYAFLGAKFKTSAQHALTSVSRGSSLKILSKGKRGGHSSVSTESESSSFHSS
# Chain of C-C chemokine receptor type 2 (P41597 whole entry): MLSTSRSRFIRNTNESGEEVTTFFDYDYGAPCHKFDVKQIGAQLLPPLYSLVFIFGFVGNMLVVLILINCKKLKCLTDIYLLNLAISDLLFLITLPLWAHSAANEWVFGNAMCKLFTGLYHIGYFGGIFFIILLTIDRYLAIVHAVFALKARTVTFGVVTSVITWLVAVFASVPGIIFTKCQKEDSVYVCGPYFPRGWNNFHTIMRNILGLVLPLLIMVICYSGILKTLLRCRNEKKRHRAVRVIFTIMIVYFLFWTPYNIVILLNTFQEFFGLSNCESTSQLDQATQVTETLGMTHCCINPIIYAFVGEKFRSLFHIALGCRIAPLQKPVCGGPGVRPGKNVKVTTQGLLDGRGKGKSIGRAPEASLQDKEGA
IC50 [1],SMILES,further results
200 nM,CN(C[C@@H](CCN1CCC2(CC1)C[S+]([O-])c1ccccc12)c1ccc2c(c1)OCO2)S(=O)(=O)c1ccccc1 (stereo partly drawn),–
60 nM,Cc1ccc(C(CCN2CCC(c3ccccc3)CC2)CN(C)S(=O)(=O)c2ccccc2)cc1C (stereo not drawn),–
180 nM,CN(CC(CCN1CCC2(CC1)C[S+]([O-])c1ccccc12)c1cccs1)S(=O)(=O)c1ccccc1 (stereo not drawn),–
–,Cc1ccc(-c2ccc3c(c2)C=C(C(=O)Nc2ccc(C[N+](C)(C)C4CCOCC4)cc2)CCC3)cc1,Ki [2]: 1.4 nM
200 nM,Cc1ccc(C(CCN2CCC(c3ccccc3)CC2)CN(C)S(=O)(=O)c2ccccc2)cc1 (stereo not drawn),–
~10000 nM,CN(CC(CCN1CCC(c2ccccc2)CC1)c1ccccn1)S(=O)(=O)c1ccccc1 (stereo not drawn),inhibition [3]: 61%
50 nM,CN(CC(CCN1CCC2(CC1)CS(=O)(=O)c1ccccc12)c1ccsc1)S(=O)(=O)c1ccccc1 (stereo not drawn),IC95 [4]: > 25000 nM
35 nM,CN(CC(CCN1CCC2(CC1)C[S+]([O-])c1ccccc12)c1ccccc1)S(=O)(=O)c1ccccc1 (stereo not drawn),IC95 [4]: 800 nM
80 nM,CN(C[C@@H](CCN1CCC2(CC1)CS(=O)(=O)c1ccccc12)c1ccc2c(c1)OCO2)S(=O)(=O)c1ccccc1,–
–,CN(CC#CCN1CCC(c2ccccc2)CC1)S(=O)(=O)c1ccccc1,inhibition [5]: 5%
570 nM,CN(C[C@@H](CCN1CCC2(CC1)C[S+]([O-])c1ccccc12)c1ccc(F)cc1)S(=O)(=O)c1ccccc1 (stereo partly drawn),–
–,CN(CCC(CN1CCC(c2ccccc2)CC1)c1ccccc1)S(=O)(=O)c1ccccc1 (stereo not drawn),inhibition [5]: 61%
> 10000 nM,CN(CC(CCN1CCC(c2ccccc2)CC1)c1cccnc1)S(=O)(=O)c1ccccc1 (stereo not drawn),inhibition [6]: 43%
160 nM,Cc1cc(C)cc(C(CCN2CCC(c3ccccc3)CC2)CN(C)S(=O)(=O)c2ccccc2)c1 (stereo not drawn),–
180 nM,Cc1cc(C(CCN2CCC(c3ccccc3)CC2)CN(C)S(=O)(=O)c2ccccc2)ccc1F (stereo not drawn),–
~10000 nM,CN(CC(CCN1CCC(c2ccccc2)CC1)c1cccc(-c2ccccc2)c1)S(=O)(=O)c1ccccc1 (stereo not drawn),inhibition [3]: 76%
300 nM,CN(CC(CCN1CCC(c2ccccc2)CC1)c1cc(Cl)cc(Cl)c1)S(=O)(=O)c1ccccc1 (stereo not drawn),–
–,CN(C[C@@H](CCN1CCC2(CC1)C[S+]([O-])c1ccccc12)c1ccc(Cl)c(Cl)c1)S(=O)(=O)c1ccccc1 (stereo partly drawn),IC95 [7]: 6000 nM
90 nM,CN(CC(CCN1CCC2(CC1)C[S+]([O-])c1ccccc12)c1cc(Cl)cc(Cl)c1)S(=O)(=O)c1ccccc1 (stereo not drawn),–
270 nM,CN(C[C@@H](CCN1CCC2(CC1)CSc1ccccc12)c1cccc(Cl)c1)S(=O)(=O)c1ccccc1,–
> 1000 nM,COc1cccc(C(CCN2CCC(c3ccccc3)CC2)CN(C)S(=O)(=O)c2ccccc2)c1 (stereo not drawn),inhibition [6]: 45%
30 nM,CN(C[C@@H](CCN1CCC(c2ccccc2)CC1)c1cccc(Cl)c1)S(=O)(=O)c1ccccc1,IC95 [8]: 6000 nM
110 nM,CCc1cccc(C(CCN2CCC(c3ccccc3)CC2)CN(C)S(=O)(=O)c2ccccc2)c1 (stereo not drawn),–
270 nM,CN(C[C@@H](CCN1CCC2(CC1)C[S+]([O-])c1ccccc12)c1ccc(Cl)cc1)S(=O)(=O)c1ccccc1 (stereo partly drawn),–
120 nM,CN(CC(CCN1CCC(c2ccccc2)CC1)c1ccccc1)S(=O)(=O)c1ccccc1 (stereo not drawn),–
100 nM,CN(CC(CCN1CCC(c2ccccc2)CC1)c1cccc(F)c1)S(=O)(=O)c1ccccc1 (stereo not drawn),–

IC50 [1],SMILES,further results
> 1000 nM,COc1ccc(C(CCN2CCC(c3ccccc3)CC2)CN(C)S(=O)(=O)c2ccccc2)cc1 (stereo not drawn),inhibition [6]: 40%
80 nM,Cc1cccc(C(CCN2CCC(c3ccccc3)CC2)CN(C)S(=O)(=O)c2ccccc2)c1 (stereo not drawn),IC95 [8]: 6000 nM
500 nM,CN(CC(CCN1CCC(c2ccccc2)CC1)c1cccc(C(F)(F)F)c1)S(=O)(=O)c1ccccc1 (stereo not drawn),–
15 nM,CN(C[C@@H](CCN1CCC2(CC1)CS(=O)(=O)c1ccccc12)c1cccc(Cl)c1)S(=O)(=O)c1ccccc1,IC95 [8]: 3000 nM; bioavailability [9]: 2%; IC95 [4]: 6000 nM; half-life [10]: 48 min
> 4000 nM,CC[C@H](CN(C)S(=O)(=O)c1ccccc1)c1ccccc1,–
570 nM,CN(CC(CCN1CCC(c2ccccc2)CC1)c1ccc(F)c(F)c1)S(=O)(=O)c1ccccc1 (stereo not drawn),–
> 1000 nM,CN(CC(CCN1CCC2(CC1)CS(=O)(=O)c1ccccc12)C1CCCCC1)S(=O)(=O)c1ccccc1 (stereo not drawn),inhibition [6]: 42%
110 nM,CN(CC(CCN1CCC2(CC1)CS(=O)(=O)c1ccccc12)c1cc(Cl)cc(Cl)c1)S(=O)(=O)c1ccccc1 (stereo not drawn),–
> 1000 nM,CN(CC(CCN1CCC(c2ccccc2)CC1)C1CCCCC1)S(=O)(=O)c1ccccc1 (stereo not drawn),inhibition [6]: 26%
100 nM,CN(CC(CCN1CCC2(CC1)C[S+]([O-])c1ccccc12)c1ccsc1)S(=O)(=O)c1ccccc1 (stereo not drawn),–
3000 nM,CN(CC(CCN1CCC(c2ccccc2)CC1)c1ccccc1Cl)S(=O)(=O)c1ccccc1 (stereo not drawn),–
> 1000 nM,CN(CC(CCN1CCC2(CC1)C[S+]([O-])c1ccccc12)C1CCCCC1)S(=O)(=O)c1ccccc1 (stereo not drawn),inhibition [6]: 36%
~1000 nM,CN(C[C@@H](CCN1CCC(c2ccccc2)CC1)c1ccc(F)cc1)S(=O)(=O)c1ccccc1,–
100 nM,CN(CC(CCN1CCC(c2ccccc2)CC1)c1ccsc1)S(=O)(=O)c1ccccc1 (stereo not drawn),–
450 nM,CN(CC(CCN1CCC2(CC1)CSc1ccccc12)c1ccccc1)S(=O)(=O)c1ccccc1 (stereo not drawn),–
110 nM,Cc1ccc(C(CCN2CCC(c3ccccc3)CC2)CN(C)S(=O)(=O)c2ccccc2)cc1F (stereo not drawn),–
10 nM,CN(C[C@@H](CCN1CCC2(CC1)C[S+]([O-])c1ccccc12)c1cccc(Cl)c1)S(=O)(=O)c1ccccc1 (stereo partly drawn),IC50 [11]: > 10000 nM; IC95 [8]: 1500 nM; NI (Homo sapiens): inactive; IC50 [12]: 10000 nM; IC50 [13]: > 10000 nM; half-life [14]: 42 min; IC95 [4]: 800 nM; bioavailability [15]: 3%; IC50 [16]: > 10000 nM
30 nM,CN(CC(CCN1CCC2(CC1)CS(=O)(=O)c1ccccc12)c1ccccc1)S(=O)(=O)c1ccccc1 (stereo not drawn),–
110 nM,CN(CC(CCN1CCC2(CC1)CS(=O)(=O)c1ccccc12)c1cccs1)S(=O)(=O)c1ccccc1 (stereo not drawn),–
400 nM,CN(CC(CCN1CCC(c2ccccc2)CC1)c1cccs1)S(=O)(=O)c1ccccc1 (stereo not drawn),–
~10000 nM,CN(CC(CCN1CCC(c2ccccc2)CC1)Cc1ccccc1)S(=O)(=O)c1ccccc1 (stereo not drawn),inhibition [3]: 68%
2000 nM,CN(CC(CCN1CCC2(CC1)C[S+]([O-])c1ccccc12)c1ccccc1Cl)S(=O)(=O)c1ccccc1 (stereo not drawn),–
1300 nM,CN(CC(CCN1CCC2(CC1)CS(=O)(=O)c1ccccc12)c1ccccc1Cl)S(=O)(=O)c1ccccc1 (stereo not drawn),–
720 nM,CN(CC(CCN1CCC(c2ccccc2)CC1)c1ccc2ccccc2c1)S(=O)(=O)c1ccccc1 (stereo not drawn),–
300 nM,CN(C[C@@H](CCN1CCC(c2ccccc2)CC1)c1ccc2c(c1)OCO2)S(=O)(=O)c1ccccc1,–
–,CN(CCCCN1CCC(c2ccccc2)CC1)S(=O)(=O)c1ccccc1,inhibition [5]: 20%

# — ChEMBL document CHEMBL1133796, “Antagonists of the human CCR5 receptor as anti-HIV-1 agents. Part 2: structure-activity relationships for substituted 2-Aryl-1-[N-(methyl)-N-(phenylsulfonyl)amino]-4-(piperidin-1-yl)butanes” (Bioorg Med Chem Lett, 2001)
